Values of other authors in patent publication US20220370613A1, “PHARMACEUTICAL COMPOSITION” (Renown Pharma Inc., priority 2019, published 2022).

Columns and labels:
[1] = test system: "on-off" fluctuations in Parkinson's disease; details: subcutaneous injection
"switched on" response = details: sublingual administration

- pKa: 8.9
Structure (SMILES): CN1CCc2cccc3c2[C@H]1Cc1ccc(O)c(O)c1-3 [apomorphine]
- duration of effect [1]: 45 to 90 min
- time to effect [1]: 5 to 15 min
- mean time to onset of effect ("switched on" response): approximately 30 minutes
